Measurements taken from BindingDB's records for doi:10.1021/jm00110a015 (Virginia Commonwealth University, 1991).

Test: Inhibition of [3H]DTG binding to Sigma opioid receptor

Row | Structure (SMILES) | Ki
1 | CC(Cc1cccc(C(F)(F)F)c1)NCCCc1ccccc1 (configuration not stated) | 3.9 nM
2 | CC(Cc1cccc(Br)c1)NCCCc1ccccc1 (configuration not stated) | 6 nM
3 | c1ccc(CCCNC2Cc3ccccc3C2)cc1 | 27 nM
4 | c1ccc(CCCNC2CCCc3ccccc3C2)cc1 (configuration not stated) | 83 nM
5 | CCCc1ccc(CC(C)NCCCc2ccccc2)cc1 (configuration not stated) | 6.2 nM

Test: In vitro binding affinity at PCP binding site of sigma-opioid receptors using (+)-[3H]-MK-801 as radioligand

Row | Structure (SMILES) | IC50
6 | COc1ccc(CC(C)NCCCc2ccccc2)cc1 (configuration not stated) | > 10000 nM
7 | CC(Cc1ccc(I)cc1)NCCCc1ccccc1 (configuration not stated) | > 10000 nM
